One data set deals with HeLa and U87MG xenograft. In words: In vivo NIR fluorescence imaging, results not split by tumor model (organs, tumor-to-background ratios, retention). The settings on record: for tumor fluorescence signal remained detectable (time post-injection) / time of peak tumor fluorescence signal: post-injection. Further details: species or system mice. On the procedure:
(§1) To evaluate the tumor-targeting characteristics of DZ-TCO derivatives, DZ-1-TCO, DZ-Lys-TCO, and DZ-Lys-PEG4-TCO were administered to HeLa and U87MG xenograft-bearing nude mice (100 μL of 50 μM, n = 3 per group). In vivo fluorescence imaging was conducted at 4, 24, 48, 72, and 96 h after TCO compound injection.
(§2) Female BALB/c nude mice (4–6 weeks old; 14–20 g), obtained from Beijing Vital River Laboratory Animal Technology Co., Ltd. (Beijing, China), were subcutaneously inoculated with 5 × 10^6 HeLa or U87MG cells suspended in 100 μL PBS into the right flank. Tumor growth was monitored every 2–3 days using digital calipers, and experiments were initiated when tumor volumes reached approximately 150–300 mm^3, calculated using the formula Volume = (length × width^2)/2.
To assess the tumor-targeting capability and clearance kinetics of DZ-TCO precursors, 100 µL of each compound ([…] in PBS) was administered intravenously via the tail vein. Whole-body fluorescence imaging was performed at predetermined time points ([…]) using the IVIS Spectrum imaging system (PerkinElmer, Shelton, CT, USA) (excitation/emission, 745/820 nm) with automatic subtraction of background fluorescence during the acquisition. Fluorescence signals were acquired under standardized exposure settings, and region-of-interest (ROI) analysis was conducted using Living Image software version 4.4 (PerkinElmer) to quantify fluorescence intensity in the tumor and major organs.

The test system of a further data set is HeLa xenograft. In words: In vivo NIR fluorescence imaging, HeLa xenograft-bearing nude mice. On the procedure: as §1, §2
(§3) To assess the tumor-targeting capability and clearance kinetics of DZ-TCO precursors, 100 µL of each compound ([…] in PBS) was administered intravenously via the tail vein. Whole-body fluorescence imaging was performed at predetermined time points (4, 24, 48, 72, and 96 h post-injection) using the IVIS Spectrum imaging system (PerkinElmer, Shelton, CT, USA) (excitation/emission, 745/820 nm) with automatic subtraction of background fluorescence during the acquisition. Fluorescence signals were acquired under standardized exposure settings, and region-of-interest (ROI) analysis was conducted using Living Image software version 4.4 (PerkinElmer) to quantify fluorescence intensity in the tumor and major organs.

The subject of the next data set is U87MG xenograft. In words: In vivo NIR fluorescence imaging, U87MG xenograft-bearing nude mice. On the procedure:
as §1, §2, §3

A short description of data set [1]: In vitro stability in 50% PBS. The class given is physicochemical. The settings on record: 37 °C. As to the method: (§4) ^68GaCl3 (5 mL, 20 mCi) and DOTA-Tz (50 μg) were mixed in a reaction vial. The pH was adjusted to 4.0–4.5 by adding 1 M sodium acetate, and the mixture was heated at 95 °C for 15 min without further purification. Radiochemical purity was confirmed by RP-HPLC. In vitro stability of ^68Ga-DOTA-Tz was assessed by incubating aliquots in 50% FBS or 50% PBS at 37 °C for 30 min, 1 h, 2 h, and 4 h. The partition coefficient (log p) was determined by mixing 1 mL of n-octanol with 1 mL of PBS containing the tracer, vortexing, and centrifuging at 3000 rpm for 5 min. Samples (0.1 mL) from both the organic and aqueous phases were withdrawn, and their radioactivity was measured using a γ-counter (PerkinElmer Wizard, Shelton, CT, USA).

Data set [2] in a line: In vitro stability in 50% fetal bovine serum (FBS). The class given is in vitro ADME. On the procedure: as §4
Data set [3] is described as follows: Partition coefficient (log p), n-octanol/PBS. The class given is physicochemical. On the procedure:
as §4

From article PMC12735951, “A Bioorthogonal TCO–Tetrazine-Based Pretargeted PET/NIRF Platform Enabling High-Contrast Tumor Imaging” (Pharmaceuticals, 2025) come the findings set out here.

`CC1(C)C(=CC=C2CCCC(C=CC3=[N+](CCCCS(=O)(=O)[O-])c4ccccc4C3(C)C)=C2Cl)N(CCCCCC(=O)NCCCCC(N)C(=O)NCCCNC(=O)OC2CCC=CCCC2)c2ccccc21` (stereo not shown) [DZ-Lys-TCO]: the tumor-to-background fluorescence ratio with HeLa and U87MG xenograft (4 h) is given as 368.67 ± 151.28; in the data set with HeLa and U87MG xenograft (48 h), 4746.67 ± 100.66. For the same compound, the “fluorescence signal intensity, kidneys” value in the data set on HeLa and U87MG xenograft (48 h) is 3.95 × 10^8 p/s/cm^2/sr. Moreover, the “fluorescence signal intensity, liver” value in the data set on HeLa and U87MG xenograft (48 h) is given as 5.04 × 10^8 p/s/cm^2/sr; in the data set with HeLa and U87MG xenograft (96 h), 4.38 × 10^8 p/s/cm^2/sr. The “fluorescence signal intensity, lungs” value in the data set on HeLa and U87MG xenograft (48 h) is given as 2.02 × 10^8 p/s/cm^2/sr. The “fluorescence signal intensity, spleen” value in the data set with HeLa and U87MG xenograft (48 h) is on record as 8.77 × 10^7 p/s/cm^2/sr. In addition, the “fluorescence in normal tissues” value with HeLa and U87MG xenograft (168 h) is given as “nearly undetectable”. In addition, the “tumor fluorescence signal remained detectable (time post-injection)” value in the data set with HeLa and U87MG xenograft was “up to 168 h”. Besides, the tumor fluorescence intensity with HeLa xenograft (4 h post-injection) is 2.19 × 10^9 p/s/cm^2/sr; in the data set with HeLa xenograft (24 h post-injection), 7.06 × 10^9 p/s/cm^2/sr; in the data set on HeLa xenograft (48 h post-injection), 5.43 × 10^9 p/s/cm^2/sr; with U87MG xenograft (4 h post-injection), 5.23 × 10^9 p/s/cm^2/sr; in the data set with U87MG xenograft (24 h post-injection) it was 7.18 × 10^9 p/s/cm^2/sr; in the data set with U87MG xenograft (48 h post-injection), 4.30 × 10^9 p/s/cm^2/sr.
Consider `CC1(C)C(=CC=C2CCCC(C=CC3=[N+](CCCCS(=O)(=O)[O-])c4ccccc4C3(C)C)=C2Cl)N(CCCCCC(=O)NCCCCC(N)C(=O)NCCOCCOCCOCCOCCNC(=O)OC2CCC=CCCC2)c2ccccc21` (stereo not shown) [DZ-Lys-PEG4-TCO], for which the tumor-to-background fluorescence ratio in the data set on HeLa and U87MG xenograft (4 h) worked out at 737.00 ± 159.93. The tumor-to-background fluorescence ratio with HeLa and U87MG xenograft (24 h) came out at 1303.33 ± 116.76. Further, in the data set on HeLa and U87MG xenograft, the “time of peak tumor fluorescence signal” value is on record as 24 h and the “tumor fluorescence signal remained detectable (time post-injection)” value came to 96 h. Besides, the tumor fluorescence intensity with HeLa xenograft (24 h post-injection) is on record as 1.20 × 10^10 p/s/cm^2/sr.
For `CC1(C)C(=CC=C2CCCC(C=CC3=[N+](CCCCS(=O)(=O)[O-])c4ccccc4C3(C)C)=C2Cl)N(CCCCCC(=O)NCCCNC(=O)OC2CCC=CCCC2)c2ccccc21` (stereo not shown) [DZ-1-TCO], the tumor-to-background fluorescence ratio in the data set on HeLa and U87MG xenograft (4 h) is recorded as 695.00 ± 59.15; in the data set on HeLa and U87MG xenograft (48 h), 720.00 ± 64.21. Further, in the data set on HeLa and U87MG xenograft, the “time of peak tumor fluorescence signal” value was determined as 24 h. Besides, the “tumor fluorescence signal remained detectable (time post-injection)” value with HeLa and U87MG xenograft was determined as 72 h. The tumor fluorescence intensity in the data set with HeLa xenograft (4 h post-injection) was 6.38 × 10^9 p/s/cm^2/sr; in the data set with HeLa xenograft (24 h post-injection), 6.93 × 10^9 p/s/cm^2/sr; in the data set with HeLa xenograft (48 h post-injection), 5.57 × 10^9 p/s/cm^2/sr; with U87MG xenograft (4 h post-injection), 5.44 × 10^9 p/s/cm^2/sr; in the data set with U87MG xenograft (24 h post-injection) it was 6.12 × 10^9 p/s/cm^2/sr; in the data set with U87MG xenograft (48 h post-injection), 4.82 × 10^9 p/s/cm^2/sr.
Consider `Cc1nnc(-c2ccc(OCCOCCOCCOCCNC(=O)CN3CCN(CC(=O)[O-])CCN(CC(=O)[O-])CCN(CC(=O)[O-])CC3)cc2)nn1.[68Ga+3]` [^68Ga-DOTA-Me-Tz], for which the “radiochemical purity in PBS after 4 h” value in data set [1] is 94.48 ± 1.48%. Also, in data set [2] (50% FBS, 37 °C), the “radiochemical purity in FBS at 4 h” value was 85.88 ± 7.55%. In data set [2] (PBS and serum), the “radiochemical stability after 4 h” value is listed as more than 85%. In data set [3], the log p is given as −2.87 ± 0.02.
